Data: patent EP0394928A1, “Topical antiviral pharmaceutical composition containing a nonionic surfactant” (SYNTEX (U.S.A.) INC., priority 1989, dated 1990)
Marks after values point to notes of the source that are not given here.

Assays:
[1] = Partition coefficient (octanol / water); format: physicochemical; conditions: for logP: ratio of concentrations in nonpolar medium, e.g. octanol, and aqueous medium, e.g. water
From the text: The modes of action reported for each compound are likewise distinct. Azone has been reported as a penetration enhancer, i.e., when it is co-administered with another agent, Azone will facilitate the movement of the agent into the cell by increasing lipid fluidity (Lambert, et al., (1989), Pharm Res., 6(9):798-803). The enhancement effect has been reported to be more pronounced with lipophilic agents and with agents with higher partition coefficients. A partition coefficient is the ratio of the concentrations of a given compound in a nonpolar medium, e.g., octanol and in an aqueous medium, e.g., water (ACV and DHPG have partition coefficients of less than 0.1, whereas Ada-DHPG has a partition coefficient of about 2.8 x10⁵).

HSV-1 (F strain) [2] = experiment: Guinea pig model of cutaneous HSV-1 infection, acyclovir creams (Example 9); format: in vivo, female Hartley guinea pigs; conditions: 5% ACV in 5% Nonoxynol-9 cream; once a day for 3 days starting 24 hours post-infection; Day 4; treated vs nontreated side
From the text: In vivo testing for antiviral activity against cutaneous HSV-1 infections is also done using a guinea pig model, for example, by the procedures described by Hubler, W.R., Jr., Troy, D.F., Troll, D., and Jarratt, M., "Guinea Pig Model For Cutaneous Herpes Simplex Virus Infection", J. Invest. Dermatol., 62:92-95 (1974). This procedure is a modification of a procedure initially described by Hubler, W.R., Jr., et al., "Guinea Pig Model Eor Cutaneous Herpes Simplex Virus Infection", J. Invest. Dermatol., 62:92-95 (1974). The backs of female Hartley guinea pigs were shaved, depilated and inoculated with HSV-1 (F strain) in four different areas by multiple shallow punctures. Two quadrants were on the left side and two on the right side of the dorsum. The animals were divided into 3 treatment groups of 6 animals each. The treatment groups were topically administered a cream on one side of the back once a day for 3 days starting 24 hours post-infection, the other side of back was not treated. The creams contained as an active ingredient either 5% acyclovir in a polyethylene glycol (PEG) based cream (Zovirax ®), 5% acyclovir in a 5% Nonoxynol-9 (N-9) cream or 5% Nonoxynol-9 cream only (placebo control). The numbers of lesions which developed on either the treated or untreated side of the back were counted on Day 4 after infection. […]

HSV-1 (F strain) [3] = experiment: Guinea pig model of cutaneous HSV-1 infection, dose response tests in Azone / Nonoxynol-9 creams (Example 8); format: in vivo, female Hartley guinea pigs; conditions: once a day 3 days from 24 hours post-infection, Day 4
From the text: (§1) In vivo testing for antiviral activity against cutaneous HSV-1 infections is also done using a guinea pig model, for example, by the procedures described by Hubler, W.R., Jr., Troy, D.F., Troll, D., and Jarratt, M., "Guinea Pig Model For Cutaneous Herpes Simplex Virus Infection", J. Invest. Dermatol., 62:92-95 (1974).
(§2) This procedure is a modification of a procedure initially described by Hubler, W.R., Jr., et al., "Guinea Pig Model For Cutaneous Herpes Simplex Virus Infection", J. Invest. Dermatol., 62:92-95 (1974).
The backs of female Hartley guinea pigs were shaved, depilated and inoculated with HSV-1 (F strain) in four different areas by multiple shallow punctures. Two quadrants were on the left side and two on the right side of the dorsum. The guinea pigs were divided into treatment groups of usually 6 each. Treatment was topically administered once a day for 3 days starting 24 hours post-infection on one side of the back. The other side of the back was not treated. Different treatment groups were administered creams which contained 9-[1,3-di(1-adamantyl-carboxy)-2-propoxymethyl]guanine (Ada-DHPG), (10%, 5%, 2.5%, 1% or 0%) with 5% propylene glycol (PG), or 5% propylene glycol (PG); and either Nonoxynol-9 (5% and 2.5%) or Azone (10% and 5%). Additionally, other groups were administered creams containing Ada-DHPG (10%, 5%, 2.5%, 1% or 0%) with no propylene glycol and either 10% Azone or 5% Nonoxynol-9. Seven dose response tests were run in all. In each test the numbers of lesions were counted on Day 4 after infection. The treated side versus the nontreated side for the various groups were compared by a percent reduction in number of lesions which developed.

HSV-1 (F strain) [4] = experiment: Guinea pig model of cutaneous HSV-1 infection, DHPG versus Ada-DHPG in PG, Azone or Nonoxynol-9 creams (Example 10); format: in vivo, female Hartley guinea pigs; conditions: 0.5 ml/animal once a day for 3 days, lesions counted Day 4
From the text: as §1, §2
The backs of female Hartley guinea pigs were shaved, depilated and inoculated with HSV-1 (F strain) in four different areas by multiple shallow punctures. Two quadrants were on the left side and two on the right side of the dorsum. The animals were divided into groups and topically administered a cream on one side of the back (0.5 ml/animal) once a day for 3 days starting […] post infection. The other side of the back was not treated. The cream contained either a formulation of 9-(1,3-dihydroxy-2-propoxymethyl)guanine (DHPG) with Azone, Nonoxynol-9 (N-9), or propylene glycol (PG); or 9-[1,3-di(1-adamantylcarboxy)-2-propoxymethyl]guanine (Ada-DHPG) with Azone, Nonoxynol-9 (N-9), or propylene glycol (PG). Placebo groups were treated with only Azone, Nonoxynol-9 (N-9) or propylene glycol (PG). Both DHPG and Ada-DHPG were run in each test with a single formulation. A total of 4 tests were run. In each study, the number of lesions which developed were counted on Day 4 after infection. The treated side versus nontreated side for the various groups were compared by a percent reduction in the number of lesions which developed.

For `Nc1nc2c(ncn2COCCO)c(=O)[nH]1` [ACV, 9-(2-hydroxyethoxymethyl)guanine], the partition coefficient ([1]; octanol/water) was “less than 0.1” and the “Percent Reduction in numbers of lesions” value (HSV-1 (F strain) [2]) was 69* Percent.

With `Nc1nc2c(ncn2COC(COC(=O)C23CC4CC(CC(C4)C2)C3)COC(=O)C23CC4CC(CC(C4)C2)C3)c(=O)[nH]1` (stereo not shown) [Ada-DHPG, 9-[1,3-di(1-adamantylcarboxy)-2-propoxymethyl]guanine] the “Percent Reduction in number of lesions” value (HSV-1 (F strain) [3]; Test 1: 1% Ada-DHPG, 5% PG (no surfactant added) cream) was 12%, the “Percent Reduction in number of lesions” value (HSV-1 (F strain) [3]; Test 1: 2.5% Ada-DHPG, 5% PG (no surfactant added) cream) was 16% and the “Percent Reduction in number of lesions” value (HSV-1 (F strain) [3]; Test 1: 5% Ada-DHPG, 5% PG (no surfactant added) cream) was 3%. For the same compound, the “Percent Reduction in number of lesions” value (HSV-1 (F strain) [3]; Test 1: 10% Ada-DHPG, 5% PG (no surfactant added) cream) was 37* Percent, the “Percent Reduction in number of lesions” value (HSV-1 (F strain) [3]; Test 2: 1% Ada-DHPG, 5% Azone cream (with 5% PG)) was -6% and the “Percent Reduction in number of lesions” value (HSV-1 (F strain) [3]; Test 2: 2.5% Ada-DHPG, 5% Azone cream (with 5% PG)) was 14%. The “Percent Reduction in number of lesions” value (HSV-1 (F strain) [3]; Test 2: 5% Ada-DHPG, 5% Azone cream (with 5% PG)) was 14%, the “Percent Reduction in number of lesions” value (HSV-1 (F strain) [3]; Test 2: 10% Ada-DHPG, 5% Azone cream (with 5% PG)) was 29% and the “Percent Reduction in number of lesions” value (HSV-1 (F strain) [3]; Test 3: 1% Ada-DHPG, 10% Azone cream (with 5% PG)) was 43* Percent. For the same compound, the “Percent Reduction in number of lesions” value (HSV-1 (F strain) [3]; Test 3: 2.5% Ada-DHPG, 10% Azone cream (with 5% PG)) was 35* Percent, the “Percent Reduction in number of lesions” value (HSV-1 (F strain) [3]; Test 3: 5% Ada-DHPG, 10% Azone cream (with 5% PG)) was 73* Percent and the “Percent Reduction in number of lesions” value (HSV-1 (F strain) [3]; Test 3: 10% Ada-DHPG, 10% Azone cream (with 5% PG)) was 78* Percent. The “Percent Reduction in number of lesions” value (HSV-1 (F strain) [3]; Test 4: 1% Ada-DHPG, 10% Azone (no PG) cream) was 27%, the “Percent Reduction in number of lesions” value (HSV-1 (F strain) [3]; Test 4: 2.5% Ada-DHPG, 10% Azone (no PG) cream) was 18% and the “Percent Reduction in number of lesions” value (HSV-1 (F strain) [3]; Test 4: 5% Ada-DHPG, 10% Azone (no PG) cream) was 27%. The “Percent Reduction in number of lesions” value (HSV-1 (F strain) [3]; Test 4: 10% Ada-DHPG, 10% Azone (no PG) cream) was 47* Percent, the “Percent Reduction in number of lesions” value (HSV-1 (F strain) [3]; Test 5: 1% Ada-DHPG, 2.5% Nonoxynol-9 cream (with 5% PG)) was 33% and the “Percent Reduction in number of lesions” value (HSV-1 (F strain) [3]; Test 5: 2.5% Ada-DHPG, 2.5% Nonoxynol-9 cream (with 5% PG)) was 52* Percent. For the same compound, the “Percent Reduction in number of lesions” value (HSV-1 (F strain) [3]; Test 5: 5% Ada-DHPG, 2.5% Nonoxynol-9 cream (with 5% PG)) was 52* Percent, the “Percent Reduction in number of lesions” value (HSV-1 (F strain) [3]; Test 5: 10% Ada-DHPG, 2.5% Nonoxynol-9 cream (with 5% PG)) was 64* Percent and the “Percent Reduction in number of lesions” value (HSV-1 (F strain) [3]; Test 6: 1% Ada-DHPG, 5% Nonoxynol-9 cream (with 5% PG)) was 59* Percent. For the same compound, the “Percent Reduction in number of lesions” value (HSV-1 (F strain) [3]; Test 6: 2.5% Ada-DHPG, 5% Nonoxynol-9 cream (with 5% PG)) was 65* Percent, the “Percent Reduction in number of lesions” value (HSV-1 (F strain) [3]; Test 6: 5% Ada-DHPG, 5% Nonoxynol-9 cream (with 5% PG)) was 92* Percent and the “Percent Reduction in number of lesions” value (HSV-1 (F strain) [3]; Test 6: 10% Ada-DHPG, 5% Nonoxynol-9 cream (with 5% PG)) was 88* Percent. For the same compound, the “Percent Reduction in number of lesions” value (HSV-1 (F strain) [3]; Test 7: 1% Ada-DHPG, 5% Nonoxynol-9 (no PG) cream) was 57* Percent, the “Percent Reduction in number of lesions” value (HSV-1 (F strain) [3]; Test 7: 2.5% Ada-DHPG, 5% Nonoxynol-9 (no PG) cream) was 68* Percent and the “Percent Reduction in number of lesions” value (HSV-1 (F strain) [3]; Test 7: 5% Ada-DHPG, 5% Nonoxynol-9 (no PG) cream) was 90* Percent. The “Percent Reduction in number of lesions” value (HSV-1 (F strain) [3]; Test 7: 10% Ada-DHPG, 5% Nonoxynol-9 (no PG) cream) was 82* Percent, the “Percent Reduction in the number of lesions” value (HSV-1 (F strain) [4]; Test 1: 10% Ada-DHPG in 25% PG cream) was 51* Percent and the “Percent Reduction in the number of lesions” value (HSV-1 (F strain) [4]; Test 2: 10% Ada-DHPG in 5% PG cream) was 42* Percent. For the same compound, the “Percent Reduction in the number of lesions” value (HSV-1 (F strain) [4]; Test 3: 10% Ada-DHPG in 10% Azone cream) was 76* Percent, the “Percent Reduction in the number of lesions” value (HSV-1 (F strain) [4]; Test 4: 10% Ada-DHPG in 5% Nonoxynol-9 cream) was 77* Percent and the logP [1] was about 5.45.

For `Nc1nc2c(ncn2COC(CO)CO)c(=O)[nH]1` [DHPG, 9-(1,3-dihydroxy-2-propoxymethyl)guanine, reference compound], the “Percent Reduction in the number of lesions” value (HSV-1 (F strain) [4]; Test 1: 4.4% DHPG in 25% PG cream) was 75* Percent, the “Percent Reduction in the number of lesions” value (HSV-1 (F strain) [4]; Test 2: 4.4% DHPG in 5% PG cream) was 68* Percent and the “Percent Reduction in the number of lesions” value (HSV-1 (F strain) [4]; Test 3: 4.4% DHPG in 10% Azone cream) was 100* Percent. For the same compound, the “Percent Reduction in the number of lesions” value (HSV-1 (F strain) [4]; Test 4: 4.4% DHPG in 5% Nonoxynol-9 cream) was 94* Percent and the logP [1] was under -1.
